Measured values taken from ChEMBL document CHEMBL3045678, “Synthesis of Some New Antimicrobial Thiadiazolyl and Oxadiazolyl Quinoline Derivatives” (2005).
≈ marks a conversion by molar mass, not a printed value. Calls of active or inactive are those of the source. The calls are words filed in the database; no cut-off is given here.

Legend:
Type in all cases: functional
[1] = system: Staphylococcus aureus; assay: Antimicrobial activity against Staphylococcus aureus ATCC 6538p at 1 mg/ml after 24 hr by cup diffusion technique; settings: for zone of inhibition at 1000 µg/mL: read-out: DIZ
[2] = system: Pseudomonas aeruginosa; assay: Antimicrobial activity against Pseudomonas aeruginosa ATCC 9027 at 1 mg/ml after 24 hr by cup diffusion technique; settings: for zone of inhibition at 1000 µg/mL: ATCC 9027, 24 h, read-out: DIZ
[3] = system: Candida albicans; assay: Antimicrobial activity against Candida albicans ATCC 10231 at 1 mg/ml after 24 hr by cup diffusion technique; settings: for zone of inhibition at 1000 µg/mL: ATCC 10231, 24 h, read-out: DIZ
[4] = system: Escherichia coli; assay: Antimicrobial activity against Escherichia coli NCTC 10418 at 1 mg/ml after 24 hr by cup diffusion technique; settings: for zone of inhibition at 1000 µg/mL: NCTC 10418, 24 h, read-out: DIZ
[5] = system: Candida albicans; assay: Antimicrobial activity against Candida albicans ATCC 10231 after 48 hr by two-fold dilution method
[6] = system: Staphylococcus aureus; assay: Antimicrobial activity against Staphylococcus aureus ATCC 6538p after 24 hr by two-fold dilution method
[7] = system: Pseudomonas aeruginosa; assay: Antimicrobial activity against Pseudomonas aeruginosa ATCC 9027 after 24 hr by two-fold dilution method; settings: ATCC 9027, 24 h

Row | Compound | zone of inhibition at 1000 µg/mL [1] [mm] | zone of inhibition at 1000 µg/mL [2] [mm] | zone of inhibition at 1000 µg/mL [3] [mm] | zone of inhibition at 1000 µg/mL [4] [mm] | MIC [6] [µg/mL] | also measured
1 | CS(=O)(=O)c1nnc(-c2cc(-c3ccccc3)nc3ccccc23)o1 | 20 | 15 | 18 | 18 | – | –
2 | CCS(=O)(=O)c1nnc(-c2cc(C)nc3ccccc23)o1 | 16 | 16 | 24 | 19 | – | MBC ([5]; ATCC 10231, 48 h): 125 µg/mL (≈ 412 µM); MIC ([5]; ATCC 10231, 48 h): 125 µg/mL (≈ 412 µM)
3 | NYSTATIN | – | – | – | – | – | diameter of the inhibition zone (DIZ) [1]: inactive; diameter of the inhibition zone (DIZ) [2]: inactive; MIC [5]: 25 µg/mL; inhibition zone (IZ) [3]: 37 mm; diameter of the inhibition zone (DIZ) [4]: inactive
4 | O=S(=O)(Cc1ccccc1)c1nnc(-c2cc(-c3ccccc3)nc3ccccc23)o1 | 12 | – | 19 | 18 | – | diameter of the inhibition zone (DIZ) [2]: inactive
5 | CCS(=O)(=O)c1nnc(-c2cc(-c3ccccc3)nc3ccccc23)o1 | 18 | 13 | 18 | 17 | – | –
6 | CS(=O)(=O)c1nnc(NC(=O)c2ccnc3ccccc23)s1 | 13 | 13 | 19 | 18 | – | –
7 | Cc1cc(-c2n[nH]c(=S)o2)c2ccccc2n1 | 20 | 12 | 18 | 18 | 62.5 (≈ 257 µM) | MBC [6]: > 500 µg/mL
8 | Cc1cc(C(=O)Nc2nnc(S(=O)(=O)Cc3ccccc3)s2)c2ccccc2n1 | 28 | 13 | 19 | 19 | 62.5 (≈ 147 µM) | MBC [6]: > 500 µg/mL
9 | CCSc1nnc(-c2cc(C)nc3ccccc23)o1 | 15 | – | 19 | 19 | – | diameter of the inhibition zone (DIZ) [2]: inactive
10 | CSc1nnc(NC(=O)c2cc(-c3ccccc3)nc3ccccc23)s1 | 15 | 20 | 18 | 16 | – | MBC [7]: > 500 µg/mL; MIC [7]: 250 µg/mL (≈ 661 µM)
11 | O=C(Nc1nnc(S(=O)(=O)Cc2ccccc2)s1)c1cc(-c2ccccc2)nc2ccccc12 | 20 | 14 | 18 | 19 | 500 (≈ 1030 µM) | MBC [6]: 500 µg/mL (≈ 1030 µM)
12 | O=C(O)c1cn(C2CC2)c2cc(N3CCNCC3)c(F)cc2c1=O [CIPROFLOXACIN] | 25 | 40 | – | 30 | 2 (≈ 6.04 µM) | diameter of the inhibition zone (DIZ) [3]: inactive; MIC [7]: 4 µg/mL (≈ 12.1 µM)
13 | CCSc1nnc(NC(=O)c2ccnc3ccccc23)s1 | 15 | 14 | 17 | 17 | – | –
14 | CS(=O)(=O)c1nnc(NC(=O)c2cc(-c3ccccc3)nc3ccccc23)s1 | 30 | 15 | 19 | 18 | 31.2 (≈ 76.1 µM) | MBC [6]: 31.2 µg/mL (≈ 76.1 µM)
15 | CSc1nnc(-c2cc(-c3ccccc3)nc3ccccc23)o1 | 12 | 13 | 18 | 18 | – | –
16 | CSc1nnc(-c2cc(C)nc3ccccc23)o1 | 17 | 13 | 26 | 17 | – | MBC ([5]; ATCC 10231, 48 h): 125 µg/mL (≈ 486 µM); MIC ([5]; ATCC 10231, 48 h): 125 µg/mL (≈ 486 µM)
